The results in this text go back to publication PMC8213057, “Targeting ALK2: An Open Science Approach to Developing Therapeutics for the Treatment of Diffuse Intrinsic Pontine Glioma” (Journal of Medicinal Chemistry, 2020).

For one assay, the target named is CDK2/cyclin O (Homo sapiens, UniProt P24941). Particulars: 1 μM; Run 1, Run 2.
The target in the next assay is MARK1 (Homo sapiens, UniProt Q9P0L2). The following applies: 1 μM; Run 1, Run 2.
A further assay concerns the target T1, PKCiota (Homo sapiens, UniProt P41743).
T1 sequence (P41743 1-596): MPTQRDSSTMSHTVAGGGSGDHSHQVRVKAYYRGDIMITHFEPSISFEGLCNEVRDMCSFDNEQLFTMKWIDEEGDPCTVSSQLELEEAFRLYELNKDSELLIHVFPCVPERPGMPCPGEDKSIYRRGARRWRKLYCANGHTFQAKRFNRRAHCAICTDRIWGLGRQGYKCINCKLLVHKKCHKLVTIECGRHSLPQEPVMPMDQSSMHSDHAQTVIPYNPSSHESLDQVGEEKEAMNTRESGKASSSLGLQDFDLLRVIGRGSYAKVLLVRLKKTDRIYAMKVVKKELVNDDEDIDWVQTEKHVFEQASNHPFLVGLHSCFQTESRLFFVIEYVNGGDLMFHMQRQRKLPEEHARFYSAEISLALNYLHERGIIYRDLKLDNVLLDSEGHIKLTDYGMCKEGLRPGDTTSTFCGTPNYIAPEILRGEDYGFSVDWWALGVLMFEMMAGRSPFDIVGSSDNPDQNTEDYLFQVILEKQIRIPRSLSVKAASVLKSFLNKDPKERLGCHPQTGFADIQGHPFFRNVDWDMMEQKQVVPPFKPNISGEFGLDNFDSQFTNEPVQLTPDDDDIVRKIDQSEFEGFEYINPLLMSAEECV
Particulars: 1 μM; Run 1, Run 2.

The target of the next assay is PLK1 (Homo sapiens, UniProt P53350). The following applies: 1 μM; Run 1, Run 2.
PLK1, sequence (P53350 whole entry): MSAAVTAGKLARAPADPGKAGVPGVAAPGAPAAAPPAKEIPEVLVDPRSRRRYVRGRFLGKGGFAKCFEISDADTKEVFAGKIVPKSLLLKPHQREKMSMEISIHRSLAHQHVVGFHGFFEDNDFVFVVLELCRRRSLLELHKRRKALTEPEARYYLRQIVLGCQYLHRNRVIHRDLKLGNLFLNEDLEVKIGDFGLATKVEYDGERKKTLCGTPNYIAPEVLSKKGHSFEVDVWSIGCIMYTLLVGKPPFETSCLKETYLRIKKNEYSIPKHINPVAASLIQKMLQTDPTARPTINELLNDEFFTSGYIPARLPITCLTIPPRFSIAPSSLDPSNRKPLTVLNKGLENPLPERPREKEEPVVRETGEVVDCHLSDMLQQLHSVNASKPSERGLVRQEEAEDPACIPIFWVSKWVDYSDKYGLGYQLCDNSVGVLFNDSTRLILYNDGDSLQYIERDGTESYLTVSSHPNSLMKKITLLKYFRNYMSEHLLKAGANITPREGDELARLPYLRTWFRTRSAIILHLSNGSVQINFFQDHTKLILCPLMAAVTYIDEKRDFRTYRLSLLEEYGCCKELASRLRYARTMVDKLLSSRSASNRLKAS
In a further assay the target is T2, ASK1/MAP3K5 (Homo sapiens, UniProt Q99683).
T2 sequence (Q99683 1-1374): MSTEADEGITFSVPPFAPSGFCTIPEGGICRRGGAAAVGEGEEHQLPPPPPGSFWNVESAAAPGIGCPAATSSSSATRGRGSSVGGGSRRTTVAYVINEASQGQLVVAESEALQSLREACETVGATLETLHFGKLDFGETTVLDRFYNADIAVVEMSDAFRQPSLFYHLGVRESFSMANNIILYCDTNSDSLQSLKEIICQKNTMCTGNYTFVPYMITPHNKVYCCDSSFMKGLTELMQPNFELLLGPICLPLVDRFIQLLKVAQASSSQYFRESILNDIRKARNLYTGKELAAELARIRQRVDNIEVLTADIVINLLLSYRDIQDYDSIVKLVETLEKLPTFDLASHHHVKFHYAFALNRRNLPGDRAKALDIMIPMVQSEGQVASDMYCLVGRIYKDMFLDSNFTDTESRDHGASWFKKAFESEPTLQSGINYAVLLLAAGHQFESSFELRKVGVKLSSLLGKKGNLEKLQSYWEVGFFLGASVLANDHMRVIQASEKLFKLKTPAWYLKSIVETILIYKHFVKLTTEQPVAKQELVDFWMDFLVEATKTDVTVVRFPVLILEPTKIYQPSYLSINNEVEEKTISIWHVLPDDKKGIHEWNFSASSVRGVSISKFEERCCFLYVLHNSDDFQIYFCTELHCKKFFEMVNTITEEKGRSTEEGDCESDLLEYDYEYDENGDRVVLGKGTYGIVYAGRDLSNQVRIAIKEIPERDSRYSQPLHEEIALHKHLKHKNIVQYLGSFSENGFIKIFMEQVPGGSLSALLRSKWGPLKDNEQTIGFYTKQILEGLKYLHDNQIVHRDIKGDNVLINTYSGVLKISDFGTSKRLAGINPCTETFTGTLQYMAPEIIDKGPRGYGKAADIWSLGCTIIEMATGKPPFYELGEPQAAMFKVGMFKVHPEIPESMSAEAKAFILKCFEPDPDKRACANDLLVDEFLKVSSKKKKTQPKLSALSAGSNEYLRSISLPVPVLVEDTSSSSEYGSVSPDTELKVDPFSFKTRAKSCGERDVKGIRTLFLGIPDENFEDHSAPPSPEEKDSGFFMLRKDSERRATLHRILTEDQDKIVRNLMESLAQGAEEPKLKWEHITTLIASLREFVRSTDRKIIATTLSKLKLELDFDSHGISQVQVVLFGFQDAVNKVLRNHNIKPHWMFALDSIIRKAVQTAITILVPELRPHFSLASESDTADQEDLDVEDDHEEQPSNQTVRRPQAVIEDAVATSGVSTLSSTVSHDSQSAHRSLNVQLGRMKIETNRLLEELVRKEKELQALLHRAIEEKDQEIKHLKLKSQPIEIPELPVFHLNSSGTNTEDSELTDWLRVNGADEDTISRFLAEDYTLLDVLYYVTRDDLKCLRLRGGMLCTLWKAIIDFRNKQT
The assay is described as follows: biochemical. The following applies: read-out: % enzyme activity, 1 μM; Run 1, Run 2.

In a further assay the target is ERN1/IRE1 (Homo sapiens, UniProt O75460). The assay is described as follows: biochemical. Particulars: read-out: % enzyme activity, 1 μM; Run 1, Run 2.
ERN1/IRE1, sequence (O75460 19-977): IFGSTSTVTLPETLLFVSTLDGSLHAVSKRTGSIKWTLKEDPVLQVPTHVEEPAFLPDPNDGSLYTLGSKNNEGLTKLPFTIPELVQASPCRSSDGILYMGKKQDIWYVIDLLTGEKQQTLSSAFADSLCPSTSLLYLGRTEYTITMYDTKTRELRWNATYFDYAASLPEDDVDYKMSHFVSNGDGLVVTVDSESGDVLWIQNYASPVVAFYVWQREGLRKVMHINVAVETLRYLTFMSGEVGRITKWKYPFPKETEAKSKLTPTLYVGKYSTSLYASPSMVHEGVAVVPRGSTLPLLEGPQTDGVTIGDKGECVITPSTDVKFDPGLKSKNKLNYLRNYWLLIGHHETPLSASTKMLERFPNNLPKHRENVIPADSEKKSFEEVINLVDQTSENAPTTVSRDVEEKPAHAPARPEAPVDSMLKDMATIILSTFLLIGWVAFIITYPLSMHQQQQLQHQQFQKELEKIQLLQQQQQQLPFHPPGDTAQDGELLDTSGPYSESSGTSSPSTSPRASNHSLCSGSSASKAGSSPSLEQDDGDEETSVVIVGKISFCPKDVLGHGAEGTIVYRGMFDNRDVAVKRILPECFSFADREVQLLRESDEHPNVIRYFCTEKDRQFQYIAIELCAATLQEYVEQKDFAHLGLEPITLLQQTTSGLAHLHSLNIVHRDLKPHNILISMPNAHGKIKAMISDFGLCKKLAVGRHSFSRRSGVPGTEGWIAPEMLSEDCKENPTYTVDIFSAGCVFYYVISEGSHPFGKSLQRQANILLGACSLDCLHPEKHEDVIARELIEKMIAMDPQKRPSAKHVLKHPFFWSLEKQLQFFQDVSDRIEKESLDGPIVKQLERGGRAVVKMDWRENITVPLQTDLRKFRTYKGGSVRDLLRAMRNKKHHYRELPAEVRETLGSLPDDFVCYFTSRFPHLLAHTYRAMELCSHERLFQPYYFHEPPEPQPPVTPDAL
Another assay deals with T3, MEK5 (Homo sapiens, UniProt Q13163).
T3 sequence (Q13163 1-448): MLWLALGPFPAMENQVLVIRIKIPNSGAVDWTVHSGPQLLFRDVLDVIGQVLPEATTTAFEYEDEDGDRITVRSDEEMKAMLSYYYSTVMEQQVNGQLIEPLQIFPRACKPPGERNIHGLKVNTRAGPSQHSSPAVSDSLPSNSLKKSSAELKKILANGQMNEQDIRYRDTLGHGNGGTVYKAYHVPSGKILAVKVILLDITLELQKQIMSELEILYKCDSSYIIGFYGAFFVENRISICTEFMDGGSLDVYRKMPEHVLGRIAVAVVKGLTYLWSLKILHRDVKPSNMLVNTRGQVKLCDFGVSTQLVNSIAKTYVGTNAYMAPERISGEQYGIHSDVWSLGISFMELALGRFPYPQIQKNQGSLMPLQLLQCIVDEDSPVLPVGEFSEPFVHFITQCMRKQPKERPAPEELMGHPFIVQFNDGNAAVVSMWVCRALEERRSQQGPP
The assay is described as follows: biochemical. The following applies: read-out: % enzyme activity, 1 μM; Run 1, Run 2.

In a further assay the target is MNK1 (Homo sapiens, UniProt Q9BUB5). The assay can be described thus: biochemical. The following applies: read-out: % enzyme activity, 1 μM; Run 1, Run 2.
MNK1, sequence (Q9BUB5 whole entry): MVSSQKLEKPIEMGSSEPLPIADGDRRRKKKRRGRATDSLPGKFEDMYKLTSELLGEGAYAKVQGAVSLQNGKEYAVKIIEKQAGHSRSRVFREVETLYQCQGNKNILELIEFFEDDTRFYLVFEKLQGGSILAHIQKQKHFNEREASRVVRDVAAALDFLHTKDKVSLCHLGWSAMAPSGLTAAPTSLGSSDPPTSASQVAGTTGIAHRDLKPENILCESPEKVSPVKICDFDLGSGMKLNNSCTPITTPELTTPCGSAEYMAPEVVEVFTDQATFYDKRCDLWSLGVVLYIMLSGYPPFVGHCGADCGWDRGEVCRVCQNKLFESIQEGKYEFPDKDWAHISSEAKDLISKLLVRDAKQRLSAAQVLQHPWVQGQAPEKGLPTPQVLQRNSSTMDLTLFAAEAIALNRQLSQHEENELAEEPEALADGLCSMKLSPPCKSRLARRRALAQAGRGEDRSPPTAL

SMILES strings stand for the structures.

MARK1, sequence (Q9P0L2 whole entry): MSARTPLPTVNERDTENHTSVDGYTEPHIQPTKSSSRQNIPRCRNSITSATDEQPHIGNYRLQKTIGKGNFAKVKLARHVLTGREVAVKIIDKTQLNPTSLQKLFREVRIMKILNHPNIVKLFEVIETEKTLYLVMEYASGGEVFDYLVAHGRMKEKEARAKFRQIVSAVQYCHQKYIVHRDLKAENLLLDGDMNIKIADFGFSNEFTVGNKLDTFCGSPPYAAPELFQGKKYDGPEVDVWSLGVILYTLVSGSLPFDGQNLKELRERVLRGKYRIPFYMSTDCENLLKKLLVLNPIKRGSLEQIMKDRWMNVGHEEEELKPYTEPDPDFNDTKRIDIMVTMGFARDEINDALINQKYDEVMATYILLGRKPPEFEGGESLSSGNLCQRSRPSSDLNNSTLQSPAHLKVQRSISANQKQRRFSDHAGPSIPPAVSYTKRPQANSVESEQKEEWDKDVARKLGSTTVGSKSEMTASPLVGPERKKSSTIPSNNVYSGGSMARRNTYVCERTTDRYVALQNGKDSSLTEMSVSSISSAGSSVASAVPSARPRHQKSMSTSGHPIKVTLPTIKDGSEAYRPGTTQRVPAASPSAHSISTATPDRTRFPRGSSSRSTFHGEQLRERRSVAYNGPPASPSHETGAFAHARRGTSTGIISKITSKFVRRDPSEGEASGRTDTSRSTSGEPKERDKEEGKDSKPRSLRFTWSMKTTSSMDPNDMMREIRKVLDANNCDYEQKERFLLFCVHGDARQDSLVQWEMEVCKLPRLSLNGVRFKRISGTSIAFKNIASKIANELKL

`COc1cc(-c2cncc(-c3ccc(N4CCN(C)CC4)cc3)c2C)cc(F)c1C(N)=O` [Compound 26a, 2-Fluoro-6-methoxy-4-(4-methyl-5-(4-(4-methylpiperazin-1-yl)phenyl)pyridin-3-yl)benzamide]: the “% enzyme activity” value stood at 93.78% at CDK2/cyclin O, 87.63% on MARK1, 100.36% at PKCiota and 91.24% at PLK1. The remaining activity at 1 µM was 95.5% at ASK1/MAP3K5, 92.8% on ERN1/IRE1, 86.9% on MEK5 and 51.1% on MNK1.

On to `COc1cc(-c2cncc(-c3ccc(N4C[C@@H](C)N(C)[C@@H](C)C4)cc3)c2C)cc(F)c1C(N)=O` [Compound 26c, 2-Fluoro-6-methoxy-4-(4-methyl-5-(4-((3R,5S)-3,4,5-trimethylpiperazin-1-yl)phenyl)pyridin-3-yl)benzamide], for which the “% enzyme activity” value on CDK2/cyclin O worked out at 88.53%; on MARK1, 89.90%; on PKCiota, 98.91%; on PLK1, 92.70%. The remaining activity at 1 µM was determined as 97.8% at ASK1/MAP3K5, 91% at ERN1/IRE1, 93.2% on MEK5 and 71.4% on MNK1.
